Results as given in patent publication US12329758B2, “Methods for the treatment of psoriatic arthritis” (Alfasigma S.p.A., priority 2018, dated 2025).
Read-outs that look alike come from different tables or passages of the source. Each block holds one molecule with its values, some of them ahead of it.

Tests used:
[1] = test system: moderately to severely active PsA; test: Phase 2 clinical study NCT03101670, ACR20/50/70 response; format: in vivo, human; conditions: for ACR20 / ACR50 / ACR70: 200 mg q.d.
From the text: For the purpose of the present invention, the terms “ACR20”, “ACR50” and “ACR70” as used herein are scores which indicate how much a patient's symptoms of peripheral arthritis have improved according to criteria set out by the American College of Rheumatology (ACR). The ACR score represents a percentage. An ACR20 score means that a person's arthritis symptoms have improved by 20%, an ACR50 score means it has improved by 50%, and an ACR70 score means it has improved by 70%. Specifically, to qualify for an ACR20 score, a person must have at least 20% fewer tender joints (at least 20% improvement from baseline in tender joint counts, TJC68) and at least 20% fewer swollen joints (at least 20% improvement from baseline in swollen joint counts, SJC66). In addition the patient must show a 20% improvement in at least three of the following five areas: the person's overall (global) assessment of his or her own disease activity (on a 0-100 mm visual analog scale (VAS)), the physician's global assessment of the person's disease activity (on a 0-100 mm VAS), the person's assessment of his or her own PsA pain intensity (on a 0-100 mm VAS), the person's assessment of his or her own physical functioning as measured by HAQ-DI, and the results of a C-reactive protein (CRP) blood test (in mg/dL or mg/L). ACR50 and ACR70 scores use the same criteria but require 50% and 70% improvement, respectively.
(§1) This is a multicenter, Phase 2, double-blind, placebo-controlled study in subjects with moderately to severely active PsA who have an inadequate response or are intolerant to conventional disease-modifying therapy. […] Randomization to treatment groups are stratified by current cDMARD use (yes or no) and prior anti-TNF pharmaceutical use (yes or no).
Efficacy assessments to estimate signs and symptoms of PsA and peripheral arthritis, psoriasis, enthesitis, dactylitis, spondylitis, and physical function are carried out at Baseline (Day 1) and at Weeks 1, 2, 4, 8, 12, 16, or at the early discontinuation visit (EDV) if applicable, unless otherwise noted. The individual components of the ACR response criteria are obtained at screening and throughout the study.
The patient's assessment of pain is performed using a 0-100 mm VAS ranging from “no pain” to “unbearable pain” after the question “Please indicate with a vertical mark (|) through the horizontal line the most pain you had from your psoriatic arthritis today”. The length of the line from 0 to the patient's mark is recorded. This assessment should be completed before the joint examination. This pain score is also used to derive the ACR20/50/70.
The signs and symptoms of peripheral arthritis are measured using ACR20/50/70. The ACR response is a measurement of improvement in multiple disease assessment criteria.
A positive ACR20 response is defined as at least 20% improvement from baseline in both swollen (SJC66) and tender (TJC68) joint counts, and at least 20% improvement in 3 or more of the following 5 criteria: • Patient's Global Assessment of Disease Activity (0-100 mm VAS) • Physician's Global Assessment of Disease Activity (0-100 mm VAS) • Patient's Global Assessment of PsA pain intensity (0-100 mm VAS) • Patient's assessment of physical function as measured by HAQ-DI • CRP in mg/dL or mg/L
A positive ACR50 and ACR70 response is derived from the definition of the ACR20, but requiring at least 50% and 70% improvement, respectively.

[2] = test system: moderately to severely active PsA; test: Phase 2 clinical study NCT03101670, Minimal Disease Activity (MDA); format: in vivo, human; conditions: 200 mg q.d.
From the text: As used herein, the term ‘MDA’ refers to the Minimal Disease Activity, which is a measure for disease remission. For the purpose of the present invention a patient will be classified as having achieved MDA when 5 out of 7 of the following criteria are met: • TJC68 ≤1 • SJC66 ≤1 • PASI ≤1 or BSA ≤3% • Patient's Global Assessment of PsA pain intensity score ≤15 (0-100 mm VAS) • Patient's Global Assessment of Disease Activity ≤20 (0-100 mm VAS) • HAQ-DI ≤0.5 • SPARCC Enthesitis Index ≤1.
as §1
The disease activity in PsA will be measured using the MDA, which is a measure to indicate disease remission. The MDA is based on a composite score of 7 domains. A patient will be classified as having achieved MDA when 5 out of 7 of the following criteria are met: • TJC68 ≤1 • SJC66 ≤1 • PASI ≤1 or BSA ≤3% • Patient's Global Assessment of PsA pain intensity score ≤15 (0-100 mm VAS) • Patient's Global Assessment of Disease Activity ≤20 (0-100 mm VAS) • HAQ-DI ≤0.5 • SPARCC Enthesitis Index ≤1

[3] = test system: psoriasis in PsA subjects with ≥3% BSA at baseline; test: Phase 2 clinical study NCT03101670, psoriasis (PASI); format: in vivo, human; conditions: 200 mg q.d.
From the text: As used herein, the term ‘PASI’ refers to the Psoriasis Area and Severity Index score and is an index used to express the severity of psoriasis. It combines the severity (erythema, induration and desquamation) and percentage of affected area. Further details on the determination of PASI is provided in example 1. The PASI score represents the change from baseline. ‘PASI50’ refers to the portion of patients who achieved 50% improvement in the PASI score upon the tested treatment. ‘PASI75’ refers to the portion of patients who achieved 75% improvement in the PASI score upon the tested treatment. ‘PASI90’ refers to the portion of patients who achieved 90% improvement in the PASI score upon the tested treatment.
as §1
The PASI score is used to measure the severity and extent of psoriasis. Representative area of psoriasis is selected for each body region (head, arms, trunk and legs). The intensity of erythema, induration and desquamation of the psoriasis is assessed as none (0), mild (1), moderate (2), severe (3) or very severe (4).
A numerical score, ranging from 0 to 100%, will be used to measure the proportion of the subject's total BSA involved with psoriasis, as assessed by the investigator.
Four sites of affection, the head (h), upper limb (u), trunk (t) and lower limbs (l), are separately scored by using 3 parameters, erythema (E), induration (I) and desquamation (D), each of which is graded on a severity scale of 0 to 4 (0=none, 1=mild, 2=moderate, 3=severe and 4=very severe) (Section 1.4.6). The area-wise percentage involvement of the involved sites is calculated as: 1=less than 10% area; 2=10-29%; 3=30-49%; 4=50-69%; 5=70-89%; and 6=more than 90%. The final formula for PASI score is: PASI=0.1×(Eh+Ih+Dh)×Ah+0.2×(Eu+Iu+Du)×Au+0.3×(Et+It+Dt)×At+0.4×(El+Il+Dl)×Al
The total PASI score ranges between 0 (no disease) and 72 (maximal disease), but is considered unreliable when BSA <3%. Therefore, the PASI is only analysed in the subpopulation of subjects with psoriasis involving ≥3% BSA at baseline.
The following PASI parameters can be derived: • PASI change from baseline • PASI 50% improvement (PASI50) • PASI 75% improvement (PASI75) • PASI 90% improvement (PASI90) • PASI 100% improvement or complete resolution of all disease (PASI100)

[4] = test system: enthesitis in PsA patients; test: Phase 2 clinical study NCT03101670, enthesitis by SPARCC Enthesitis Index; conditions: human, in vivo
Method: As used herein, the term ‘SPARCC Enthesitis Index’ refers to a clinical scoring after examination of (entheseal) tenderness at 16 peripheral sites, which are evaluated for tenderness by palpation, and scored 0 (non-tender) or 1 (tender). The total enthesitis score is the sum of all site scores and is maximally 16. The higher the score, the higher the enthesitis burden. (Maksymowych W P et al. Development and validation of the Spondyloarthritis Research Consortium of Canada (SPARCC) Enthesitis Index. Ann Rheum Dis 2009; 68:948-53)
as §1
Enthesitis is assessed using the SPARCC Enthesitis Index. Sixteen body sites is evaluated for tenderness by palpation, and scored with 0 (non-tender) or 1 (tender). The total enthesitis score is the sum of all site scores and is maximally 16. The higher the score, the higher the enthesitis burden.
Enthesitis is assessed using the SPARCC Enthesitis Index and Leeds Enthesitis Index (LEI). The Enthesitis parameters are analyzed only in the subpopulation of subjects who have enthesitis at baseline (LEI >0). […]

[5] = test system: enthesitis in PsA patients; test: Phase 2 clinical study NCT03101670, enthesitis by Leeds Enthesitis Index (LEI); format: in vivo, human; conditions: for LEI score (change from baseline): 200 mg q.d.
From the text: As used herein, the term ‘Leeds Enthesitis Index’ or ‘LEI’ refers to a clinical scoring after examination of (entheseal) tenderness at six sites: 2 sites at each of the lateral epicondyles of the humerus, medial condyles of the femur and the insertion of the Achilles tendon. The LEI score range is 0-6. The higher the score, the higher the enthesitis burden.
as §1
In addition to the 16 sites used to assess enthesitis when evaluating the SPARCC Enthesitis Index, medial femoral condyles (left and right) is also assessed and evaluated in a similar way as the other 16 sites to allow assessing the Leeds enthesitis index (LEI).
Enthesitis is assessed using the SPARCC Enthesitis Index and Leeds Enthesitis Index (LEI). The Enthesitis parameters are analyzed only in the subpopulation of subjects who have enthesitis at baseline (LEI >0). Analysis focusses on the changes from baseline.

[6] = test system: moderately to severely active PsA; test: Phase 2 clinical study NCT03101670, physical function (HAQ-DI); format: in vivo, human; conditions: 200 mg q.d.
From the text: As used herein, the term 'HAQ-ID' refers to the Health Assessment Questionnaire […] Disability Index, which is a measure for the physical functioning of a patient. The HAQ-DI is a 20-question instrument assessing the degree of difficulty a person has in accomplishing tasks in 8 function areas (B. Bruce and J. Fries, “The Stanford Health Assessment Questionnaire: dimensions and practical applications,” Health Qual Life Outcomes, p. 1:20, 2003). The HAQ-DI total score ranges from 0 to 3 with higher scores indicating greater dysfunction. This is a multicenter, Phase 2, double-blind, placebo-controlled study in subjects with moderately to severely active PsA who have an inadequate response or are intolerant to conventional disease-modifying therapy. […] Randomization to treatment groups are stratified by current […] use (yes or no) and prior anti-TNF pharmaceutical use (yes or no). The HAQ-DI is used to monitor the subject's self-assessed physical function or disability. This 20-question instrument assesses the degree of difficulty a person has in accomplishing tasks in 8 function areas (getting dressed, arising, eating, walking, […], hygiene, reaching, gripping, errands and chores). Responses are scored on a 4-point Likert scale from 0, indicating no difficulty, to 3, indicating inability to perform a task in that area. The need for aids/devices or help from another person is also recorded. The HAQ-DI total score ranges from 0 to 3 with higher scores indicating greater dysfunction. HAQ-DI is scored on a scale from 0 to 3 and changes from baseline are reported. A decrease by at least 0.22 points versus the baseline is considered clinically meaningful.

JAK1 = JAK1 (Homo sapiens, UniProt P23458); test: inhibition of JAK1 signaling by the metabolite relative to the parent; conditions: relative to compound I
JAK1, sequence (P23458 whole entry, species assumed): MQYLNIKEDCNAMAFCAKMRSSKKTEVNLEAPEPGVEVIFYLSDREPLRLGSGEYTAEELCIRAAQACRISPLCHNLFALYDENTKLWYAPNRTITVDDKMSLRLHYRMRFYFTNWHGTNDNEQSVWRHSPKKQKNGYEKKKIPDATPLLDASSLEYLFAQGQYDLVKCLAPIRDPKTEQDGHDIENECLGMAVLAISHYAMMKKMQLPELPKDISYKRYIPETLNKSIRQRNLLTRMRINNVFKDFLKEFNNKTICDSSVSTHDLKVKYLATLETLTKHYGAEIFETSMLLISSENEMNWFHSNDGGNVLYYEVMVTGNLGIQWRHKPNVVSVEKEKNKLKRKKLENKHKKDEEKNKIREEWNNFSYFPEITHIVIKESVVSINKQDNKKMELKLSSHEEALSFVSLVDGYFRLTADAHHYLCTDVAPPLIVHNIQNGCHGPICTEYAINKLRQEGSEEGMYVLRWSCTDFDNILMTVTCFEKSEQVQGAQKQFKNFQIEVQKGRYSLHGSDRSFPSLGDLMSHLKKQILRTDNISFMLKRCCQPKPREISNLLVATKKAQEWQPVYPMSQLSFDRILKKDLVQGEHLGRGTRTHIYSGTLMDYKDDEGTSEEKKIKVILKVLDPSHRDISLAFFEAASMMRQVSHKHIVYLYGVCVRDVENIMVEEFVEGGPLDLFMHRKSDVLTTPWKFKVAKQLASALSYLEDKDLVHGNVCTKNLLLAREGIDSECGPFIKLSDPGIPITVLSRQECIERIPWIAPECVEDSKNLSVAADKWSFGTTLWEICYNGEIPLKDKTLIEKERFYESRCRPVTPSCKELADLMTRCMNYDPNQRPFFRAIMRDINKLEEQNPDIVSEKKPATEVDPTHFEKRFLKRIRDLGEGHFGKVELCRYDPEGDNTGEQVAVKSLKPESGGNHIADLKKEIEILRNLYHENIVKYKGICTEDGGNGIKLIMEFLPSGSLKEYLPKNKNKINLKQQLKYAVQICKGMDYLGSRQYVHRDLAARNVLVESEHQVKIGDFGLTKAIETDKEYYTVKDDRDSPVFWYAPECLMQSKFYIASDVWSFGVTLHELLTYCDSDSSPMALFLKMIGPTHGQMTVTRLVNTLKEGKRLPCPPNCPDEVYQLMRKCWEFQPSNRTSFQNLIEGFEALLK
From the text: (§2) Though the potency of this metabolite is lower than the parent molecule, the overall exposure and peak plasma concentration in humans is higher than seen in all tested animal species. As a consequence, dedicated pharmacology and toxicology studies have been performed with compound II. […] The compound according to formula II is described in WO2013/189771.

[7] = abundance of the metabolite relative to the parent compound in humans; format: in vivo, human; conditions: relative to compound I
From the text: as §2

[8] = test system: active psoriatic arthritis; conditions: cited from earlier work
[9] = W12, subjects with ≥3% BSA at baseline
[10] = W16, subjects with ≥3% BSA at baseline

Structure (SMILES): O=C(Nc1nc2cccc(-c3ccc(CN4CCS(=O)(=O)CC4)cc3)n2n1)C1CC1 [compound I, cyclopropanecarboxylic acid {5-[4-(1,1-dioxo-thiomorpholin-4-ylmethyl)-phenyl]-[1,2,4]triazolo[1,5-a]pyridin-2yl}-amide]
ACR20 ([1]; Week 1): 26.2% | ACR50 ([1]; Week 1): 6.2% | ACR70 ([1]; Week 1): 1.5% | ACR20 ([1]; Week 2): 33.8% | ACR50 ([1]; Week 2): 10.8% | ACR70 ([1]; Week 2): 3.1% | ACR20 ([1]; Week 4): 61.5% | ACR50 ([1]; Week 4): 20.0% | ACR70 ([1]; Week 4): 7.7% | ACR20 ([1]; Week 8): 67.7% | ACR50 ([1]; Week 8): 32.3% | ACR70 ([1]; Week 8): 12.3% | ACR20 ([1]; Week 12): 83.1% | ACR50 ([1]; Week 12): 41.5% | ACR70 ([1]; Week 12): 10.8% | ACR50 ([1]; Week 16): 47.7% | ACR70 ([1]; Week 16): 23.1% | ACR20 and ACR50 difference from placebo ([1]; as from week 1): statistically significant difference from placebo | difference in ACR20, ACR50 and ACR70 score versus placebo ([1]; week 16): statistically significant difference | MDA ([2]; Week 12): 21.5% | MDA ([2]; Week 16): 23.1% | PASI75 [3, 9]: 33.3% | PASI mean cfb [3, 9]: −5.5 | PASI75 [3, 10]: 45.2% | PASI mean cfb [3, 10]: −6.3 | effect on enthesitis compared with placebo [4]: improved enthesitis compared with placebo | LEI score (change from baseline) ([5]; Week 4, enthesitis at baseline (LEI >0)): −1.7 | LEI score (change from baseline) ([5]; Week 8, enthesitis at baseline (LEI >0)): −2.1 | LEI score (change from baseline) ([5]; Week 12, enthesitis at baseline (LEI >0)): −1.9 | LEI score (change from baseline) ([5]; Week 16, enthesitis at baseline (LEI >0)): −1.8 | Enthesitis resolved per LEI, treatment difference versus placebo ([5]; patients with enthesitis at baseline): 26% | HAQ-DI (change from baseline) ([6]; Week 1): −0.19 | HAQ-DI (change from baseline) ([6]; Week 2): −0.30 | HAQ-DI (change from baseline) ([6]; Week 4): −0.44 | HAQ-DI (change from baseline) ([6]; Week 8): −0.50 | HAQ-DI (change from baseline) ([6]; Week 12): −0.53 | HAQ-DI (change from baseline) ([6]; Week 16): −0.57

potency on JAK1 signaling, fold less potent than parent compound (JAK1): approximately 20 fold | abundance, fold more abundant than the parent compound [7]: about 10 fold
Structure (SMILES): Nc1nc2cccc(-c3ccc(CN4CCS(=O)(=O)CC4)cc3)n2n1 [compound II]

Structure (SMILES): C[C@@H]1CCN(C(=O)CC#N)C[C@@H]1N(C)c1ncnc2[nH]ccc12 [tofacitinib]
ACR20 response rate ([8]; month 3, dosed at 5 mg): 50% | ACR20 response rate ([8]; month 3, dosed at 10 mg): 61%
